Source: US20150111933A1, “Deuterated Thiazolidinone Analogues as Agonists for Follicle Stimulating Hormone Receptor” (Merck Patent GmbH, priority 2012, published 2015)

How the values were obtained:
[1] = molecular target: T1, FSHR (Homo sapiens, UniProt P23945); assay: EC50 of cyclic AMP production in CHO FSHR cells + EC20 FSH (HTRF); type: cell-based; details: Cho-FSHR-LUC-1-1-43 cells; for EC50: + EC20 FSH (0.265 pM), 200 μM IBMX, 1 h at 37° C., read-out: EC50 of cAMP production; for EC50 of cAMP production (% effect) / Emax: + EC20 FSH, % effect in brackets; for Emax: 1 h, read-out: EC50 of cAMP production (% effect)
T1 construct: expressed in transfected cells; host or cells: CHO (Cho-FSHR-LUC-1-1-43)
T1 sequence (P23945 18-695): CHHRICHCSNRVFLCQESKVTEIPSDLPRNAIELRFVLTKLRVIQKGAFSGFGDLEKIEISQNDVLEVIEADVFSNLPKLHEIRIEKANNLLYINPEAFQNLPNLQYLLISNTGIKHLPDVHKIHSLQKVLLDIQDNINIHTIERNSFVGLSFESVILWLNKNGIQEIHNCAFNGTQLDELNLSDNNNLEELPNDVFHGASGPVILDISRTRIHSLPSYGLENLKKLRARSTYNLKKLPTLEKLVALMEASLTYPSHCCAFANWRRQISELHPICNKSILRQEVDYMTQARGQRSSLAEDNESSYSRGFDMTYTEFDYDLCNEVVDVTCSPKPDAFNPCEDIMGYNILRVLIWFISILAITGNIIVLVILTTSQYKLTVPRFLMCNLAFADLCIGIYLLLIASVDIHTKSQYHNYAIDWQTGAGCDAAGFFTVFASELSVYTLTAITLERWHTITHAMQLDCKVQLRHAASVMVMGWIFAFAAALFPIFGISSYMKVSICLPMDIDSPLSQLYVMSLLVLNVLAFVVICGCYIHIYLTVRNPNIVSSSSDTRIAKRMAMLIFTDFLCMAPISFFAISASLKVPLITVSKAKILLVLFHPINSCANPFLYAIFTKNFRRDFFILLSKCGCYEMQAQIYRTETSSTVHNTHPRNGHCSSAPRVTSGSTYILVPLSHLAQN
Description: EC50 of Cyclic AMP Production in CHO FSHR Cells+EC20 FSH
2500 Cho-FSHR-LUC-1-1-43 cells were plated per well in 5 μL of phenol red free DMEM/F12+1% FBS. Cells were plated in 384 well, solid white low volume plates (Greiner 784075) by Multidrop. Cells were assayed by adding […] of 2×EC20 FSH/IBMX in DMEM/F12+0.1% BSA) by Multidrop to 2 μL of test compound stamped in 384 well plates (compounds are diluted 1:50). The final FSH concentration was 0.265 pM, and the final IBMX concentration was 200 μM. The compound plate map was as follows: Column 1: 2 μL of DMSO; Column 2: 2 μL of DMSO; Columns 3-12 and 13-24: 2 μL of test compound, diluted 1:4 in 100% DMSO, or 2 μL of FSH, diluted 1:4 in DMEM/F12+0.1% BSA. The starting concentration for FSH was 50 nM (final concentration was 0.5 nM). Furthermore, Column 23 contained 2 μL of EC100 FSH reference (100×) (diluted in DMEM/F12+0.1% BSA) at a final concentration of 0.5 nM, and Column 24 contained 2 μL of 1 mM AS707664/2 reference compound 2. 5 μL of compound+EC20 FSH mixture were transferred to cell plates (1:2 dilution into 5 μL of cell media) The plates were incubated at 37° C. for 1 h. 10 μL of mixed HTRF (CisBio #62AM4PEC) reagents were added per well and incubated at room temperature for 1 h. The plates were read on Envision using the cAMP HTRF—low volume 384 well protocol. The readout was the calculated fluorescence ratio (665 nm/620 nm).

[2] = Intrinsic clearance (Clint) in human liver microsomes; type: in vitro ADME; details: 0.5 mg/mL protein, NADPH, up to 30 min, first value of human/rat; for Clint (human): human liver microsomes; for microsomal CLint at 0.8 μM: human, liver microsomes, pH 7.4, human liver microsomes
Description: (§1) Intrinsic Clearance (Clint) Assay Protocol:
(§2) A Tecan Genesis workstation (RSP 150/8) was used for to perform the microsomal incubations. Analysis was carried out using a Waters ACQUITY UPLC system coupled to an ABSciex API3000 mass spectrometer. Data analysis was performed using Assay Explorer (Symyx).
(§3) 0.1 M potassium phosphate buffer pH 7.4 containing 1 mM MgCl2 15 mM NADPH in phosphate buffer 4.4 mg protein/mL liver microsomes in phosphate buffer acetonitrile 20% DMSO in water
(§4) Each experiment consists of 12 test and 2 reference compounds. The reference compounds are incubated as a cocktail. Dilution of test compounds was done in 2 steps from a 10 mM DMSO stock solution. First 4 μL stock solution was added to 196 μL of 20% DMSO in potassium phosphate buffer pH 7.4. In a second step 10 μL of the first dilution were added to […] potassium phosphate buffer and 100 μL internal standard solution to a final concentration of 0.8 μM. 100 μL of the final compound dilution were aliquoted into a 96 deep well plate. 12.5 μL liver microsomes were added to each well (0.5 mg/mL final protein concentration) and the samples preincubated for 5 min at 37° C. and 800 rpm agitation.
(§5) After the preincubation, 250 μL cold acetonitrile were added to the 0 min samples to prevent a reaction. Following this, 12.5 μL NADPH solution were added to all wells to start the incubation, with the exception of the 0 min and 30 min controls without cofactor, where the NADPH was substituted for phosphate buffer.
(§6) The incubations were stopped after 5, 10, 20 and 30 min by adding 250 μL cold acetonitrile to the individual wells.
(§7) The quenched samples were then centrifuged at 4000 g for 1 h at 4° C. 100 μL of the supernatant were transferred into 96 well plates for analysis.
(§8) The metabolic stability of each compound was determined by measurement of the change in LC-MS/MS peak area over time. Assay Explorer software was used to automatically calculate the slope k of the decline. The intrinsic clearance (Clint) of each compound was then calculated according to the formula:
(§9) Clint (μL/min/mg protein)=k1000/protein concentration.

[3] = Intrinsic clearance (Clint) in rat liver microsomes; type: in vitro ADME; details: 0.5 mg/mL protein, NADPH, up to 30 min, second value of human/rat; for Clint (rat): rat liver microsomes; for microsomal CLint at 0.8 μM: rat, liver microsomes, pH 7.4, rat liver microsomes
Description: as §1, §2, §3, §4, §5, §6, §7, §8, §9

Molecule	EC50 [1] [nM]	EC50 of cAMP production (% effect) [1]	Clint (human) [2] [μL/min/mg protein]	Clint (rat) [3] [μL/min/mg protein]	microsomal CLint at 0.8 μM [2] [µL/min/mg]	Emax [1] [%]	microsomal CLint at 0.8 μM [3] [µL/min/mg]
3-((2S,5R)-4-oxo-5-(2-oxo-2-((1,1,2,2-d4-2-(3-ethoxy-4-methoxy-d3-phenyl)ethyl)amino)ethyl)-2-(2,3,5,6-d4-4-(phenylethynyl)phenyl)thiazolidin-3-yl)benzamide [Compound 15]	0.6	(99) %	–	–	–	–	–
3-((2S,5R)-5-(2-((3-ethoxy-4-methoxyphenethyl)amino)-2-oxoethyl)-4-oxo-2-(4-((phenyl-d5)ethynyl)phenyl)thiazolidin-3-yl)benzamide [Compound 8]	1.7	(99) %	188	54	–	–	–
[2H]C([2H])(NC(=O)C[C@H]1S[C@@H](c2ccc(C#Cc3ccccc3)cc2)N(c2cccc(C(N)=O)c2)C1=O)C([2H])([2H])c1ccc(OC)c(OCC)c1 (single isomer, unassigned) [Compound 4]	0.7	–	191	–	–	99	51
[2H]C([2H])([2H])Oc1ccc(CCNC(=O)C[C@H]2S[C@@H](c3ccc(C#Cc4ccccc4)cc3)N(c3cccc(C(N)=O)c3)C2=O)cc1OCC (single isomer, unassigned) [Compound 6]	0.7	–	–	–	208	96	56
[2H]c1c([2H])c([2H])c(C#Cc2ccc([C@@H]3S[C@H](CC(=O)NC([2H])([2H])C([2H])([2H])c4ccc(OC([2H])([2H])[2H])c(OCC)c4)C(=O)N3c3cccc(C(N)=O)c3)cc2)c([2H])c1[2H] (single isomer, unassigned) [Compound 10]	0.3	–	–	–	161	98	23
[2H]c1c([2H])c([2H])c(C#Cc2ccc([C@@H]3S[C@H](CC(=O)NC([2H])([2H])C([2H])([2H])c4ccc(O)c(OC)c4)C(=O)N3c3cccc(C(N)=O)c3)cc2)c([2H])c1[2H] (single isomer, unassigned) [Compound 11]	335	–	–	–	–	99	–
[2H]c1c([2H])c([2H])c(C#Cc2ccc([C@@H]3S[C@H](CC(=O)NCCc4ccc(O)c(O)c4)C(=O)N3c3cccc(C(N)=O)c3)cc2)c([2H])c1[2H] [Compound 12, 3-((2S,5R)-5-(2-((3,4-dihydroxyphenethyl)amino)-2-oxoethyl)-4-oxo-2-(4-((2,3,4,5,6-phenyl-d5)ethynyl)phenyl)thiazolidin-3-yl)benzamide]	220	–	–	–	–	99	–
[2H]c1c([2H])c([C@@H]2S[C@H](CC(=O)NC([2H])([2H])C([2H])([2H])c3ccc(OC([2H])([2H])[2H])c(OC([2H])([2H])[2H])c3)C(=O)N2c2cccc(C(N)=O)c2)c([2H])c([2H])c1C#Cc1ccccc1 [Compound 17, 3-((2S,5R)-4-oxo-5-(2-oxo-2-((1,1,2,2-d4-2-(3,4-dimethoxy-d6-phenyl)ethyl)amino)ethyl)-2-(2,3,5,6-d4-4-(phenylethynyl)phenyl-d5)thiazolidin-3-yl)benzamide]	0.9	–	–	–	–	100	–

The remaining molecules from weak to strong by EC50 [1], led by results:

EC50 [1] [nM]	EC50 of cAMP production (% effect) [1]	Clint (human) [2] [μL/min/mg protein]	Clint (rat) [3] [μL/min/mg protein]	microsomal CLint at 0.8 μM [2] [µL/min/mg]	Emax [1] [%]	microsomal CLint at 0.8 μM [3] [µL/min/mg]	Molecule
1.3	–	–	–	–	97	–	[2H]c1c([2H])c([2H])c(C#Cc2ccc([C@@H]3S[C@H](CC(=O)NC([2H])([2H])C([2H])([2H])c4ccc(OC([2H])([2H])[2H])c(OC)c4)C(=O)N3c3cccc(C(N)=O)c3)cc2)c([2H])c1[2H] [Compound 13, 3-((2S,5R)-4-oxo-5-(2-oxo-2-((1,1,2,2-d4-2-(3-ethoxy-4-methox-d3-yphenyl)ethyl)amino)ethyl)-2-(4-((phenyl-d5)ethynyl)phenyl)thiazolidin-3-yl)benzamide]
0.87	–	–	–	67	99	31	[2H]C([2H])(NC(=O)C[C@H]1S[C@@H](c2ccc(C#Cc3ccccc3)cc2)N(c2cccc(C(N)=O)c2)C1=O)C([2H])([2H])c1ccc(O)c(OC)c1 (single isomer, unassigned) [Compound 1]
0.8	–	–	–	168	99	45	[2H]C([2H])([2H])Oc1ccc(C([2H])([2H])C([2H])([2H])NC(=O)C[C@H]2S[C@@H](c3ccc(C#Cc4ccccc4)cc3)N(c3cccc(C(N)=O)c3)C2=O)cc1OCC (single isomer, unassigned) [Compound 5]
0.7	–	–	–	–	100	–	[2H]c1c([2H])c([C@@H]2S[C@H](CC(=O)NC([2H])([2H])C([2H])([2H])c3ccc(OC([2H])([2H])[2H])c(OCC)c3)C(=O)N2c2cccc(C(N)=O)c2)c([2H])c([2H])c1C#Cc1ccccc1 (single isomer, unassigned) [Compound 16]
0.5	(99) %	184	44	–	–	–	3-((2S,5R)-4-oxo-5-(2-oxo-2-((2-(3,4-dimethoxyphenyl-d6l)ethyl)amino)ethyl)-2-(4-(phenylethynyl)phenyl)thiazolidin-3-yl)benzamide [Compound 7]
0.3	–	–	–	181	97	31	[2H]c1c([2H])c([2H])c(C#Cc2ccc([C@@H]3S[C@H](CC(=O)NC([2H])([2H])C([2H])([2H])c4ccc(OC)c(OCC)c4)C(=O)N3c3cccc(C(N)=O)c3)cc2)c([2H])c1[2H] (single isomer, unassigned) [Compound 9]
